In PubChem BioAssay AID248 (DTP/NCI, 2004):
Values joined by “and” are separate entries in the source; they are usually repeats but may differ in a detail not shown here. Equal values may be shown once. Inconclusive results and toxic doses are left out. Cut-off read from the data, not from the text of the source: active = T/C of 150% or more; inactive = T/C below 125%.

Tested on: L1210 leukemia ip in BDF1 mice, survival T/C
Assay: NCI In Vivo Anticancer Drug Screen. Data for tumor model L1210 Leukemia (intraperitoneal) in B6D2F1 (BDF1) mice
Details: endpoint: mean survival time, higher = longer survival
How it was run: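 In this screen, tumor-bearing mice given compound are compared to those given vehicle, and their survival values are reported as a treated-to-control quotient.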

[1] = dose: 100.0 mg/kg/injection, schedule: Q01DX001 (ip), vehicle: carboxymethylcellulose (CMC)
[2] = dose: 200.0 mg/kg/injection, schedule: Q01DX001 (ip), vehicle: carboxymethylcellulose (CMC)
[3] = dose: 400.0 mg/kg/injection, schedule: Q01DX001 (ip), vehicle: carboxymethylcellulose (CMC)
[4] = dose: 100.0 mg/kg/injection, schedule: Q01DX009 (ip), vehicle: saline with Tween-80
[5] = dose: 200.0 mg/kg/injection, schedule: Q01DX009 (ip), vehicle: saline with Tween-80
[6] = dose: 100.0 mg/kg/injection, schedule: Q04DX003 (ip), vehicle: Klucel (hydroxypropylcellulose) (HPC)
[7] = dose: 200.0 mg/kg/injection, schedule: Q04DX003 (ip), vehicle: Klucel (hydroxypropylcellulose) (HPC)
[8] = dose: 400.0 mg/kg/injection, schedule: Q04DX003 (ip), vehicle: Klucel (hydroxypropylcellulose) (HPC)
[9] = dose: 100.0 mg/kg/injection, schedule: Q01DX009 (ip), vehicle: Klucel (hydroxypropylcellulose) (HPC)
[10] = dose: 200.0 mg/kg/injection, schedule: Q01DX009 (ip), vehicle: Klucel (hydroxypropylcellulose) (HPC)
[11] = dose: 400.0 mg/kg/injection, schedule: Q01DX009 (ip), vehicle: Klucel (hydroxypropylcellulose) (HPC)
[12] = dose: 50.0 mg/kg/injection, schedule: Q04DX003 (ip), vehicle: Klucel (hydroxypropylcellulose) (HPC)

Measured: T/C

Cc1cc(NC(=O)Nc2ccc(Cl)c(C(F)(F)F)c2)no1
inactive: dose: 50.0 mg/kg/injection, schedule: Q01DX009 (ip), vehicle: carboxymethylcellulose (CMC) 96 % of control and 97 % of control | [1] 110 % of control and 112 % of control | dose: 100.0 mg/kg/injection, schedule: Q04DX002 (ip), vehicle: carboxymethylcellulose (CMC) 94 % of control and 100 % of control | dose: 100.0 mg/kg/injection, schedule: Q04DX003 (ip), vehicle: carboxymethylcellulose (CMC) 96 % of control and 103 % of control | [2] 95 % of control and 108 % of control | dose: 200.0 mg/kg/injection, schedule: Q04DX002 (ip), vehicle: carboxymethylcellulose (CMC) 94 % of control and 97 % of control | dose: 200.0 mg/kg/injection, schedule: Q04DX003 (ip), vehicle: carboxymethylcellulose (CMC) 97 % of control and 101 % of control | [3] 94 % of control and 91 % of control | dose: 400.0 mg/kg/injection, schedule: Q01DX009 (ip), vehicle: carboxymethylcellulose (CMC) 86 % of control | dose: 400.0 mg/kg/injection, schedule: Q04DX002 (ip), vehicle: carboxymethylcellulose (CMC) 89 % of control and 90 % of control | dose: 400.0 mg/kg/injection, schedule: Q04DX003 (ip), vehicle: carboxymethylcellulose (CMC) 92 % of control and 95 % of control

CC(=O)Nc1ccc(/C=N/NC(N)=S)cc1
inactive: dose: 100.0 mg/kg/injection, schedule: Q04DX013 (ip), vehicle: carboxymethylcellulose (CMC) 94 % of control | dose: 200.0 mg/kg/injection, schedule: Q04DX013 (ip), vehicle: carboxymethylcellulose (CMC) 98 % of control

Clc1ccc2c(NCCc3cnc[nH]3)ccnc2c1
inactive: [4] 94 % of control | [5] 94 % of control

CC(CCN(CC(=O)O)CC(=O)O)N(CC(=O)O)CC(=O)O (centres undefined)
inactive: dose: 100.0 mg/kg/injection, schedule: Q01DX001 (ip), vehicle: saline 98 % of control | dose: 200.0 mg/kg/injection, schedule: Q01DX001 (ip), vehicle: saline 101 % of control | dose: 400.0 mg/kg/injection, schedule: Q01DX001 (ip), vehicle: saline 93 % of control

ClCc1ccc2c(c1)OCO2
inactive: [6] 104 % of control | [7] 101 % of control | [8] 98 % of control

Cc1nc(SCc2ccccc2)[nH]c(=O)c1CC(C)O (centres undefined)
inactive: [6] 104 % of control | [7] 97 % of control | [8] 104 % of control

COC(=O)/C(=C\c1ccccc1)CN1CCCCC1
inactive: dose: 25.0 mg/kg/injection, schedule: Q01DX001 (ip), vehicle: saline with Tween-80 101 % of control | dose: 50.0 mg/kg/injection, schedule: Q01DX001 (ip), vehicle: saline with Tween-80 93 % of control | dose: 100.0 mg/kg/injection, schedule: Q01DX001 (ip), vehicle: saline with Tween-80 104 % of control

Cc1ccc(SP(=O)(Sc2ccc(C)cc2)Sc2ccc(C)cc2)cc1
inactive: dose: 100.0 mg/kg/injection, schedule: Q04DX002 (ip), vehicle: saline with Tween-80 97 % of control | dose: 200.0 mg/kg/injection, schedule: Q04DX002 (ip), vehicle: saline with Tween-80 97 % of control | dose: 400.0 mg/kg/injection, schedule: Q04DX002 (ip), vehicle: saline with Tween-80 97 % of control

Clc1ccc(/C=C/c2ccccc2)cc1
inactive: dose: 44.0 mg/kg/injection, schedule: Q01DX001 (ip), vehicle: other 96 % of control | dose: 66.0 mg/kg/injection, schedule: Q01DX001 (ip), vehicle: other 105 % of control | dose: 100.0 mg/kg/injection, schedule: Q01DX001 (ip), vehicle: other 100 % of control | dose: 150.0 mg/kg/injection, schedule: Q01DX001 (ip), vehicle: other 97 % of control | dose: 200.0 mg/kg/injection, schedule: Q01DX001 (ip), vehicle: other 100 % of control | dose: 400.0 mg/kg/injection, schedule: Q01DX001 (ip), vehicle: other 111 % of control

CC(CCl)NC(=O)Nc1cccc2c1CCCC2 (centres undefined)
inactive: [9] 102 % of control | [6] 106 % of control | [10] 103 % of control | [7] 106 % of control | [11] 97 % of control | [8] 103 % of control

S=P(NNc1ccccc1)(NNc1ccccc1)c1ccc(Cl)cc1
inactive: dose: 100.0 mg/kg/injection, schedule: Q04DX002 (ip), vehicle: gum acacia 89 % of control | dose: 200.0 mg/kg/injection, schedule: Q04DX002 (ip), vehicle: gum acacia 89 % of control | dose: 400.0 mg/kg/injection, schedule: Q04DX002 (ip), vehicle: gum acacia 92 % of control

CC(=O)O[C@H]1C[C@@]2(C)[C@@H](C[C@@H](O)[C@H]3[C@@]4(C)CC[C@@H](O)[C@@H](C)[C@@H]4CC[C@@]32C)/C1=C(\CCC=C(C)C)C(=O)O
inactive: dose: 50.0 mg/kg/injection, schedule: Q01DX009 (sc), vehicle: steriod suspending solution 95 % of control | [1] 97 % of control | dose: 100.0 mg/kg/injection, schedule: Q01DX009 (sc), vehicle: steriod suspending solution 95 % of control | dose: 100.0 mg/kg/injection, schedule: Q04DX003 (ip), vehicle: steriod suspending solution 102 % of control | [2] 94 % of control | dose: 200.0 mg/kg/injection, schedule: Q01DX009 (sc), vehicle: steriod suspending solution 103 % of control | dose: 200.0 mg/kg/injection, schedule: Q04DX003 (ip), vehicle: steriod suspending solution 102 % of control | [3] 90 % of control | dose: 400.0 mg/kg/injection, schedule: Q04DX003 (ip), vehicle: steriod suspending solution 101 % of control

COc1ccc2c(c1C)CCC1(CO)C(C(C)=O)=CCC21 (centres undefined)
inactive: [9] 105 % of control | [6] 92 % of control | [10] 110 % of control | [7] 97 % of control | [11] 100 % of control | [8] 102 % of control

CCC(C)CNC(C)=O (centres undefined)
inactive: dose: 100.0 mg/kg/injection, schedule: Q04DX003 (ip), vehicle: saline 109 % of control | dose: 200.0 mg/kg/injection, schedule: Q04DX003 (ip), vehicle: saline 106 % of control | dose: 400.0 mg/kg/injection, schedule: Q04DX003 (ip), vehicle: saline 109 % of control

CCCCC/C=C/c1c(C)[nH]c2ccccc2c1=O
inactive: [9] 118 % of control | [6] 100 % of control | [10] 94 % of control | [7] 96 % of control | [11] 99 % of control | [8] 89 % of control

NC(=O)C(=O)NCCCCN1CC1
inactive: dose: 12.5 mg/kg/injection, schedule: Q04DX003 (ip), vehicle: Klucel (hydroxypropylcellulose) (HPC) 97 % of control | dose: 25.0 mg/kg/injection, schedule: Q04DX003 (ip), vehicle: Klucel (hydroxypropylcellulose) (HPC) 97 % of control | [12] 102 % of control | [6] 114 % of control

NC(=S)N/N=C\c1cccs1
inactive: dose: 100.0 mg/kg/injection, schedule: Q04DX002 (ip), vehicle: Klucel (hydroxypropylcellulose) (HPC) 96 % of control | dose: 200.0 mg/kg/injection, schedule: Q04DX002 (ip), vehicle: Klucel (hydroxypropylcellulose) (HPC) 107 % of control | dose: 400.0 mg/kg/injection, schedule: Q04DX002 (ip), vehicle: Klucel (hydroxypropylcellulose) (HPC) 102 % of control

CC(=O)Nc1cc2c(cc1[N+](=O)[O-])-c1ccc(F)cc1C2
inactive: [12] 104 % of control | [1] 94 % of control | [6] 96 % of control | [2] 96 % of control | [7] 100 % of control | [3] 91 % of control

O=C1CCCC/C1=C/c1ccc(Cl)cc1
inactive: [9] 95 % of control | [6] 103 % of control | [10] 98 % of control | [7] 106 % of control | [11] 101 % of control | [8] 105 % of control

CCC(=O)Nc1cccc(OC(=O)NCC(C)C)c1
inactive: [4] 92 % of control | [5] 94 % of control | dose: 400.0 mg/kg/injection, schedule: Q01DX009 (ip), vehicle: saline with Tween-80 91 % of control

Cc1c2c(cc3c4ccccc4n(CC4CO4)c13)C(c1ccc(Cl)cc1)=NCC2 (centres undefined)
inactive: dose: 37.5 mg/kg/injection, schedule: Q04DX003 (ip), vehicle: water 104 % of control | dose: 75.0 mg/kg/injection, schedule: Q04DX003 (ip), vehicle: water 100 % of control | dose: 150.0 mg/kg/injection, schedule: Q04DX003 (ip), vehicle: water 92 % of control | dose: 300.0 mg/kg/injection, schedule: Q04DX003 (ip), vehicle: water 96 % of control

CC1=C(Br)C(=O)C(c2c(C)c(Br)c(C)c([N+](=O)[O-])c2C)=C(Br)C1=O
inactive: dose: 100.0 mg/kg/injection, schedule: Q01DX001 (ip), vehicle: Klucel (hydroxypropylcellulose) (HPC) 98 % of control | [6] 102 % of control | dose: 200.0 mg/kg/injection, schedule: Q01DX001 (ip), vehicle: Klucel (hydroxypropylcellulose) (HPC) 93 % of control | [7] 102 % of control | dose: 400.0 mg/kg/injection, schedule: Q01DX001 (ip), vehicle: Klucel (hydroxypropylcellulose) (HPC) 106 % of control | [8] 91 % of control

CCOC(=O)c1ccc(NC(=S)NCc2cccnc2)cc1
inactive: [9] 106 % of control | [10] 97 % of control | [11] 102 % of control
